Test results published in PMC8854719, “Phase 1A/1B dose-escalation and -expansion study to evaluate the safety, pharmacokinetics, food effects and antitumor activity of pamiparib in advanced solid tumours” (British Journal of Cancer, 2021).

Experiment: Safety and tolerability: adverse events, dose-limiting toxicities, MTD, RP2D (Phase 1A/1B)
Type: in vivo
Protocol: This was an open-label, Phase 1, dose-escalation/dose-expansion study, conducted across six study centres in Australia. The dose-escalation phase evaluated twice-daily (BID) and once-daily (QD) dosing, and the dose-expansion phase evaluated the BID RP2D from the dose-escalation phase and food effects (Fig. 1). The food-effects cohort comprised two sequences: fast followed by fed (sequence 1) and fed followed by fast (sequence 2). […] The decision to proceed to the next dose cohort was determined by the Safety Monitoring Committee and followed a modified 3 + 3 escalation scheme. […] When ≥2 DLTs occurred in the first 23 days of a dose level, the next lower dose level was declared the MTD. Safety was monitored and DLTs were assessed in all dose cohorts. […] The food-effects cohort investigated the effects of food on the PK of pamiparib in patients with advanced solid tumours.
The QD dosing regimen was added as an amendment to the protocol with the purpose of exploring the feasibility of a more convenient regimen.
Safety and tolerability were assessed throughout the study by monitoring adverse events (AEs), serious AEs, clinical laboratory measurements and physical examinations. Adverse events were categorised according to their severity (National Cancer Institute Common Terminology Criteria for Adverse Events v4.03) and relationship to the study treatment.

C[C@]12CCCN1CC1=NNC(=O)c3cc(F)cc4[nH]c2c1c34 [pamiparib]
Treatment-emergent AE: Grade 3 or higher (40 mg BID (n = 6)): 3 (50.0) n (%) | Treatment-emergent AE: Leading to death (40 mg BID (n = 6)): 0 (0.0) n (%) | Treatment-emergent AE: Leading to dose interruption (40 mg BID (n = 6)): 4 (66.7) n (%) | Treatment-emergent AE: Leading to dose modification (40 mg BID (n = 6)): 4 (66.7) n (%) | Treatment-emergent AE: Leading to dose reduction (40 mg BID (n = 6)): 0 (0.0) n (%) | Treatment-emergent AE: Leading to treatment discontinuation (40 mg BID (n = 6)): 1 (16.7) n (%) | Treatment-emergent AE: Serious (40 mg BID (n = 6)): 2 (33.3) n (%) | Treatment-related AE (40 mg BID (n = 6)): 6 (100.0) n (%) | Treatment-related AE: Grade 3 or higher (40 mg BID (n = 6)): 2 (33.3) n (%) | Treatment-related AE: Leading to death (40 mg BID (n = 6)): 0 (0.0) n (%) | Treatment-related AE: Leading to dose interruption (40 mg BID (n = 6)): 3 (50.0) n (%) | Treatment-related AE: Leading to dose modification (40 mg BID (n = 6)): 3 (50.0) n (%) | Treatment-related AE: Leading to dose reduction (40 mg BID (n = 6)): 0 (0.0) n (%) | Treatment-related AE: Leading to treatment discontinuation (40 mg BID (n = 6)): 0 (0.0) n (%) | Treatment-related AE: Serious (40 mg BID (n = 6)): 0 (0.0) n (%) | Upper respiratory tract infection, AE of any grade (40 mg BID (n = 6)): 1 (16.7) n (%) | Urinary tract infection, AE of any grade (40 mg BID (n = 6)): 0 (0.0) n (%) | Vomiting, AE of any grade (40 mg BID (n = 6)): 5 (83.3) n (%) | Dose-limiting toxicities observed (description) (40 mg BID, n = 1): Grade 2 nausea | Incidence of nausea (60 mg BID): 54.5% | Abdominal pain, AE of any grade (60 mg BID (n = 11)): 3 (27.3) n (%) | Anaemia, AE of any grade (60 mg BID (n = 11)): 4 (36.4) n (%) | Ascites, AE of any grade (60 mg BID (n = 11)): 0 (0.0) n (%) | Back pain, AE of any grade (60 mg BID (n = 11)): 1 (9.1) n (%) | Constipation, AE of any grade (60 mg BID (n = 11)): 1 (9.1) n (%) | Cough, AE of any grade (60 mg BID (n = 11)): 1 (9.1) n (%) | Decreased appetite, AE of any grade (60 mg BID (n = 11)): 1 (9.1) n (%) | Diarrhoea, AE of any grade (60 mg BID (n = 11)): 4 (36.4) n (%) | Dose-limiting toxicity (60 mg BID (n = 11)): 0 (0.0) n (%) | Dyspnoea, AE of any grade (60 mg BID (n = 11)): 1 (9.1) n (%) | Fatigue, AE of any grade (60 mg BID (n = 11)): 2 (18.2) n (%) | Headache, AE of any grade (60 mg BID (n = 11)): 0 (0.0) n (%) | Hypoalbuminemia, AE of any grade (60 mg BID (n = 11)): 2 (18.2) n (%) | Hypomagnesemia, AE of any grade (60 mg BID (n = 11)): 0 (0.0) n (%) | Hypophosphatemia, AE of any grade (60 mg BID (n = 11)): 1 (9.1) n (%) | Increased AST, AE of any grade (60 mg BID (n = 11)): 1 (9.1) n (%) | Muscle spasms, AE of any grade (60 mg BID (n = 11)): 1 (9.1) n (%) | Nausea, AE of any grade (60 mg BID (n = 11)): 6 (54.5) n (%) | Neutropenia, AE of any grade (60 mg BID (n = 11)): 0 (0.0) n (%) | Non-cardiac chest pain, AE of any grade (60 mg BID (n = 11)): 1 (9.1) n (%) | Pain in extremity, AE of any grade (60 mg BID (n = 11)): 1 (9.1) n (%) | Peripheral sensory neuropathy, AE of any grade (60 mg BID (n = 11)): 1 (9.1) n (%) | Pleural effusion, AE of any grade (60 mg BID (n = 11)): 2 (18.2) n (%) | Pyrexia, AE of any grade (60 mg BID (n = 11)): 0 (0.0) n (%) | Treatment-emergent AE (60 mg BID (n = 11)): 11 (100.0) n (%) | Treatment-emergent AE: Grade 3 or higher (60 mg BID (n = 11)): 9 (81.8) n (%) | Treatment-emergent AE: Leading to death (60 mg BID (n = 11)): 3 (27.3) n (%) | Treatment-emergent AE: Leading to dose interruption (60 mg BID (n = 11)): 8 (72.7) n (%) | Treatment-emergent AE: Leading to dose modification (60 mg BID (n = 11)): 8 (72.7) n (%) | Treatment-emergent AE: Leading to dose reduction (60 mg BID (n = 11)): 0 (0.0) n (%) | Treatment-emergent AE: Leading to treatment discontinuation (60 mg BID (n = 11)): 0 (0.0) n (%) | Treatment-emergent AE: Serious (60 mg BID (n = 11)): 9 (81.8) n (%) | Treatment-related AE (60 mg BID (n = 11)): 7 (63.6) n (%) | Treatment-related AE: Grade 3 or higher (60 mg BID (n = 11)): 1 (9.1) n (%) | Treatment-related AE: Leading to death (60 mg BID (n = 11)): 0 (0.0) n (%) | Treatment-related AE: Leading to dose interruption (60 mg BID (n = 11)): 2 (18.2) n (%) | Treatment-related AE: Leading to dose modification (60 mg BID (n = 11)): 2 (18.2) n (%) | Treatment-related AE: Leading to dose reduction (60 mg BID (n = 11)): 0 (0.0) n (%) | Treatment-related AE: Leading to treatment discontinuation (60 mg BID (n = 11)): 0 (0.0) n (%) | Treatment-related AE: Serious (60 mg BID (n = 11)): 1 (9.1) n (%) | Upper respiratory tract infection, AE of any grade (60 mg BID (n = 11)): 1 (9.1) n (%) | Urinary tract infection, AE of any grade (60 mg BID (n = 11)): 3 (27.3) n (%) | Vomiting, AE of any grade (60 mg BID (n = 11)): 4 (36.4) n (%) | Incidence of nausea (80 mg BID): 80.0% | Abdominal pain, AE of any grade (80 mg BID (n = 10)): 2 (20.0) n (%) | Anaemia, AE of any grade (80 mg BID (n = 10)): 4 (40.0) n (%)
